Values of other authors in patent publication US20250205146A1, “GRAPHENE-BASED DRUG DELIVERY DEVICE FOR MUCOSAL AND TRANSMUCOSAL ADMINISTRATION” (SISSA - SCUOLA INTERNAZIONALE SUPERIORE DI STUDI AVANZATI, priority 2022, published 2025).

Conditions: cyclic voltammetry, depending on the electrochemical system used

## Cn1c(=O)c2c(ncn2C)n(C)c1=O [caffeine]
  irreversible oxidation peak potential: over 1.4 V
